Where two headings read alike, the source gives them in different places.
What was measured:
[1] = test system: JAK1 (IL-13-stimulated STAT6 phosphorylation in BEAS-2B cells); test: P-STAT6 BEAS-2B+IL-13 cell assay; type: cell-based, human; settings: 1 hour compound, IL-13 15 minutes, IC50 by four-parameter fit, read-out: Cellular JAK1 PSTAT6 BEAS2B + IL13
Experimental: In order to study the effect of JAK1 inhibitors in a cell line that is relevant to the cell biology of human asthma, an IL-13-stimulated STAT6 phosphorylation assay in the human lung bronchial epithelial BEAS-2B cell line was developed.
BEAS-2B cells (ATCC® CRL-9609™) were grown in Bronchial Epithelial Growth Medium (BEGM) (Lonza Catalog No. CC-3170; Walkersville, MD; or PromoCell Catalog No. C-21060; Heidelberg, Germany). Test compound stock solutions (0.5 mM in DMSO) were serially diluted 1:2 in DMSO to generate a 10-point concentration curve (at 500× test concentration), which was further diluted by a 50-fold dilution step in BEGM to generate a 10× concentration curve (in 2% DMSO). Cells were plated at 100,000 cells/well in 200 μL of BEGM in 96-well plates and incubated for 48 hours at 37° C. in a humidified incubator. Medium was aspirated from the cells and replaced with 70 μL of fresh BEGM. Diluted test compound (10 μL; or 2% DMSO in assay medium) was added to the cells, and the plates were incubated for 1 hour at 37° C. in a humidified incubator. Twenty μL of 250 ng/mL human recombinant IL-13 (Bio Techne Catalog No. 213-ILB) was then added to the cells and incubated for 15 minutes at 37° C. Medium was aspirated from the cells and 60 μL of ice-cold 1×cell lysis buffer (Cell Signaling Technologies; Catalog No. 9803S) containing 1 mM PMSF was added to the cells. Assay plates were incubated at −80° C. for at least 1 hour. P-STAT6 was measured by coating GAR plates (MSD; Catalog No. L45RA-1) with rabbit anti-human total STAT6 antibody (Cell Signaling Technologies; Catalog No. 9362S), incubating the cell lysates in the coated plates overnight at 4° C., and then detecting with mouse anti-phospho-STAT6 (Tyr641) Clone 16E12 antibody (Millipore; Catalog No. 05-590, custom labeled by MSD with SULFO-tag) using standard MSD plate processing, washing, and detection protocols. Plates were read on the MESO SECTOR S600.
Data analysis was performed by subtracting negative control values from all wells and determining percent of control using the positive control values; the IC50 was determined with a four-parameter logistic fit model as shown in Equation 4.

[2] = molecular target: T1, recombinant human JAK1 kinase domain protein (Residues 854-1154) (Homo sapiens, UniProt P23458); test: JAK1 biochemical assay (microfluidic mobility shift, peptide phosphorylation); settings: 25 μM ATP, 1 nM total JAK1; Ki calculated from Ki app (tight-binding, competitive); read-out: Biochem JAK1 Ki
T1 construct: human JAK1 kinase domain protein (Residues 854-1154); purchased Proteros Biostructures GmbH (Martinsried, Germany); host or cells: insect cells
T1 sequence (P23458 854-1154): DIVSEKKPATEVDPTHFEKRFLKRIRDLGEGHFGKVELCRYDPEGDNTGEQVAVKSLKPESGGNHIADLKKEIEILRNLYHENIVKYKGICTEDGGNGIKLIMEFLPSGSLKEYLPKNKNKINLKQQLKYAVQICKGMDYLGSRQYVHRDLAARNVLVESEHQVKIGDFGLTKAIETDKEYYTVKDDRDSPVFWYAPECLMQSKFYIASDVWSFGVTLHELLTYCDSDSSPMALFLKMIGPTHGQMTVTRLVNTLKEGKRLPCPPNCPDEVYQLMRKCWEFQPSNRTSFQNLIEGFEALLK
Experimental: (§1) The in vitro biochemical assays quantify JAK-catalyzed phosphorylation of a synthetic peptide, as detected using a LabChip® EZ Reader II microfluidic mobility shift instrument (PerkinElmer; Waltham, MA). The substrate peptide Y-1B has the sequence 5-FAM-VALVDGYFRLTT-NH2. Y-1B is fluorescently labeled on the N-terminus with 5-FAM (5-carboxyfluorescein) and contains a single tyrosine residue (Y) that can be phosphorylated by JAK activity. The substrate peptide stock is prepared in DMSO at 5 mM. Purified recombinant human JAK1 kinase domain protein (Residues 854-1154) was expressed in insect cells and procured from Proteros Biostructures GmbH (Martinsried, Germany). Recombinant human JAK2 kinase domain protein (Residues 812-1132) was expressed in insect cells and purified at Genentech, Inc. (South San Francisco, CA).
(§2) The kinase reaction mixtures contained 100 mM 4-(2-hydroxyethyl)-1-piperazineethanesulfonic acid (HEPES) buffer (pH 7.2), 10 mM magnesium chloride, 0.015% Brij® 35, 4 mM dithiothreitol, 1.5 μM Y-1B peptide substrate, 25 μM adenosine triphosphate (ATP), 1 nM total JAK1 or 0.2 nM total JAK2, and up to 1000 nM test compound in a final concentration of 2% (volume to volume [v/v]) DMSO. In each titration experiment, test compound was tested in duplicate at each of the twelve concentrations. Blank reactions contained ATP, peptide, and DMSO, but no JAK or test compound, whereas uninhibited control reactions contained ATP, peptide, JAK, and DMSO, but no test compound.
(§3) Peptide plus ATP mixture (24 μL) was added to 1 μL of test compound in DMSO (or DMSO alone). The reactions were initiated by adding 25 μL of JAK enzyme to the inhibitor/peptide/ATP mixture before thoroughly mixing the resultant solution. Reactions were incubated at room temperature (22° C.-23° C.) in a final volume of 50 μL per well in 384-well plates. After a 30-minute incubation, the reactions were stopped by adding 25 μL of 150 mM ethylenediaminetetraacetic acid in 100 mM HEPES buffer (pH 7.2) containing 0.015% Brij 35 to each well.
(§4) In each reaction, the residual Y-1B substrate and the phospho-peptide product generated were separated using the EZ Reader 1 instrument. Electrophoretic separation of molecules of product from molecules of substrate was achieved using downstream and upstream voltages of −500 and −2600 V, respectively, at an operating pressure of −1.3 psi. The 5-FAM group present on both the substrate and product peptides was excited at 488 nm, the fluorescence was detected at 530 nm, and the peak heights were reported.
(§5) The extent (or percent) of conversion of substrate to product was calculated from the corresponding peak heights in the electropherogram using HTS Well Analyzer software, Version 5.2 (PerkinElmer), and the following equation (Equation 1): % conversion=[P[…](S+P)]×100 Equation 1 where S and P represent the peak heights of the substrate and product, respectively. After any baseline signal from blank wells containing no JAK was subtracted from the signal of all test wells, the % conversion data were converted to fractional activity as shown in Equation 2, where νi and νo are the % conversion in the presence and absence of test compound, respectively. The % conversion observed in the uninhibited control reactions containing JAK and DMSO vehicle, but no test compound, was defined to have fractional activity=1 (with no inhibitor present, νi=νo), whereas blank wells with no JAK were defined as having fractional activity=0. Fractional activity was plotted against test compound concentration and the data were fitted using XLfit software (IDBS; Guildford, United Kingdom) to a tight-binding apparent inhibition constant (Ki^app) quadratic equation (see Equation 2) (Williams J W, Morrison J F. The kinetics of reversible tight-binding inhibition. Methods Enymol 1979; 63:437-67), which was used to calculate fractional activity and Ki^app […]

[3] = molecular target: T2, Recombinant human JAK2 kinase domain protein (Residues 812-1132) (Homo sapiens, UniProt O60674); test: JAK2 biochemical assay (microfluidic mobility shift, peptide phosphorylation); settings: 25 μM ATP, 0.2 nM total JAK2; Ki calculated from Ki app (tight-binding, competitive); read-out: Biochem JAK2 Ki
T2 construct: human JAK2 kinase domain protein (Residues 812-1132); made in house; host or cells: insect cells
T2 sequence (O60674 812-1132): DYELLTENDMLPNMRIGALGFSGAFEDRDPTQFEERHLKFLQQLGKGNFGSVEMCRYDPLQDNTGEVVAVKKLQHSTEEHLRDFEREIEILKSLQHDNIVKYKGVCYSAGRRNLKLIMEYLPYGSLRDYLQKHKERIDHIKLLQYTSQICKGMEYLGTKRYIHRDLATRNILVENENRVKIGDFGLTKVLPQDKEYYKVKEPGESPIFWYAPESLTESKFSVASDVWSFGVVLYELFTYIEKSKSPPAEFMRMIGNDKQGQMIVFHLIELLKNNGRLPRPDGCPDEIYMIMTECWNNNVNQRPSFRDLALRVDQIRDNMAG
Experimental: as §1, §2, §3, §4, §5

| Ki [2] | Ki [3] | Compound | IC50 [1] | IC50 ([1]; Homo sapiens, BEAS-2B, 1 h) | IC50 ([1]; formic acid) |
| --- | --- | --- | --- | --- | --- |
| 0.54 nM | 0.47 nM | CN(C)CCN(C)C1CC(n2nnc(Cn3cc(NC(=O)c4cnn5cccnc45)c(-c4cc(OC(F)F)ccc4OC(F)F)n3)n2)C1 (single isomer, unassigned) [Example 82, N-[3-[2,5-bis(difluoromethoxy)phenyl]-1-[[2-[3-[2-(dimethylamino)ethyl-methyl-amino]cyclobutyl]tetrazol-5-yl]methyl]pyrazol-4-yl]pyrazolo[1,5-a]pyrimidine-3-carboxamide; formic acid] |  |  | 32 nM |
| 0.43 nM | 0.39 nM | CN(C)CC(F)CN1CC(n2nnc(Cn3cc(NC(=O)c4cnn5cccnc45)c(-c4cc(OC(F)F)ccc4OC(F)F)n3)n2)C1 (single isomer, unassigned) [Example 83, N-[3-[2,5-bis(difluoromethoxy)phenyl]-1-[[2-[1-[3-(dimethylamino)-2-fluoro-propyl]azetidin-3-yl]tetrazol-5-yl]methyl]pyrazol-4-yl]pyrazolo[1,5-a]pyrimidine-3-carboxamide] |  | 17 nM |  |
| 0.55 nM | 0.5 nM | CN(C)CC(F)CN1CC(n2nnc(Cn3cc(NC(=O)c4cnn5cccnc45)c(-c4cc(OC(F)F)ccc4OC(F)F)n3)n2)C1 (single isomer, unassigned) [Example 84, N-[3-[2,5-bis(difluoromethoxy)phenyl]-1-[[2-[1-[3-(dimethylamino)-2-fluoro-propyl]azetidin-3-yl]tetrazol-5-yl]methyl]pyrazol-4-yl]pyrazolo[1,5-a]pyrimidine-3-carboxamide] | 20 nM |  |  |

The remaining lines, values behind:

| Compound | Ki [2] | Ki [3] | IC50 [1] | IC50 ([1]; Homo sapiens, BEAS-2B, 1 h) | IC50 ([1]; formic acid) |
| --- | --- | --- | --- | --- | --- |
| CN(C)C1CCC(N2CC(n3nnc(Cn4cc(NC(=O)c5cnn6cccnc56)c(-c5cc(OC(F)F)ccc5OC(F)F)n4)n3)C2)C1 (single isomer, unassigned) [Example 76, N-[3-[2,5-bis(difluoromethoxy)phenyl]-1-[[2-[1-[3-(dimethylamino)cyclopentyl]azetidin-3-yl]tetrazol-5-yl]methyl]pyrazol-4-yl]pyrazolo[1,5-a]pyrimidine-3-carboxamide] | 2.4 nM | 1.9 nM | 74 nM |  |  |
| CN(C)CCN(C)C1CC(n2nnc(Cn3cc(NC(=O)c4cnn5cccnc45)c(-c4cc(OC(F)F)ccc4OC(F)F)n3)n2)C1 (single isomer, unassigned) [Example 81, N-[3-[2,5-bis(difluoromethoxy)phenyl]-1-[[2-[3-[2-(dimethylamino)ethyl-methyl-amino]cyclobutyl]tetrazol-5-yl]methyl]pyrazol-4-yl]pyrazolo[1,5-a]pyrimidine-3-carboxamide; formic acid] | 0.52 nM | 0.47 nM |  | 29 nM |  |
| CN1CCC[C@@H]1Cn1nnc(Cn2cc(NC(=O)c3cnn4cccnc34)c(-c3cc(OC(F)F)ccc3OC(F)F)n2)n1 (stereo in doubt) [Example 49, N-[3-[2,5-bis(difluoromethoxy)phenyl]-1-[[2-[[rac-(2R)-1-methylpyrrolidin-2-yl]methyl]tetrazol-5-yl]methyl]pyrazol-4-yl]pyrazolo[1,5-a]pyrimidine-3-carboxamide] | 0.53 nM | 0.41 nM |  | 19 nM |  |
| CN1CCC[C@H]1Cn1nnc(Cn2cc(NC(=O)c3cnn4cccnc34)c(-c3cc(OC(F)F)ccc3OC(F)F)n2)n1 (stereo in doubt) [Example 53, N-[3-[2,5-bis(difluoromethoxy)phenyl]-1-[[2-[[rac-(2S)-1-methylpyrrolidin-2-yl]methyl]tetrazol-5-yl]methyl]pyrazol-4-yl]pyrazolo[1,5-a]pyrimidine-3-carboxamide] | 0.48 nM | 0.32 nM |  | 35 nM |  |
| O=C(Nc1cn(Cc2nnn(CCO)n2)nc1-c1cc(Cl)ccc1OC(F)F)c1cnn2cccnc12 [Example 1, N-[3-[5-chloro-2-(difluoromethoxy)phenyl]-1-[[2-(2-hydroxyethyl)tetrazol-5-yl]methyl]pyrazol-4-yl]pyrazolo[1,5-a]pyrimidine-3-carboxamide] | 0.15 nM | 0.089 nM |  | 6.7 nM |  |
| O=C(Nc1cn(Cc2nnn(CCN3CCOCC3)n2)nc1-c1cc(Cl)ccc1OC(F)F)c1cnn2cccnc12 [Example 2, N-[3-[5-chloro-2-(difluoromethoxy)phenyl]-1-[[2-(2-morpholinoethyl)tetrazol-5-yl]methyl]pyrazol-4-yl]pyrazolo[1,5-a]pyrimidine-3-carboxamide] | 0.54 nM | 0.29 nM |  | 14 nM |  |
| CN1CCC(n2nnc(Cn3cc(NC(=O)c4cnn5cccnc45)c(-c4cc(Cl)ccc4OC(F)F)n3)n2)CC1 [Example 3, N-[3-[5-chloro-2-(difluoromethoxy)phenyl]-1-[[2-(1-methyl-4-piperidyl)tetrazol-5-yl]methyl]pyrazol-4-yl]pyrazolo[1,5-a]pyrimidine-3-carboxamide] | 0.58 nM | 0.43 nM |  | 14 nM |  |
| O=C(Nc1cn(Cc2nnn(C3COC3)n2)nc1-c1cc(Cl)ccc1OC(F)F)c1cnn2cccnc12 [Example 4, N-[3-[5-chloro-2-(difluoromethoxy)phenyl]-1-[[2-(oxetan-3-yl)tetrazol-5-yl]methyl]pyrazol-4-yl]pyrazolo[1,5-a]pyrimidine-3-carboxamide] | 0.23 nM | 0.12 nM |  | 6.8 nM |  |
